Blank lines part the entries; values can stand above or below the molecule they belong to.
Assays:
[1] = Effect on tau protein expression in human SH-SY5Y cells; type: functional, cell-based
Escherichia coli [2] = experiment: In vivo antibacterial activity against Escherichia coli MB5746 infected in DBA/2J mouse assessed as log 10 reduction in CFU in spleen at 60 mg/kg, sc administered every 3 hrs for 24 hrs (reference value: 9.53 log10 CFU); type: functional
Escherichia coli [3] = experiment: In vivo antibacterial activity against Escherichia coli MB5746 infected in DBA/2J mouse assessed as log 10 reduction in CFU in spleen at 120 mg/kg, sc administered every 3 hrs for 24 hrs (reference value: 9.53 log10 CFU); type: functional
Escherichia coli [4] = experiment: Antibacterial activity against Escherichia coli MB5746; type: functional, organism-based
[5] = Binding affinity to telomeric RNA (unknown origin) assessed as dissociation constant
[6] = molecular target: T1, Microtubule-associated protein tau (Homo sapiens, UniProt P10636); experiment: Inhibition of tau in human LA-N-5 cells assessed as reduction in 4R/3R ratio; type: cell-based; settings: concentration not given here
T1 sequence (P10636 whole entry): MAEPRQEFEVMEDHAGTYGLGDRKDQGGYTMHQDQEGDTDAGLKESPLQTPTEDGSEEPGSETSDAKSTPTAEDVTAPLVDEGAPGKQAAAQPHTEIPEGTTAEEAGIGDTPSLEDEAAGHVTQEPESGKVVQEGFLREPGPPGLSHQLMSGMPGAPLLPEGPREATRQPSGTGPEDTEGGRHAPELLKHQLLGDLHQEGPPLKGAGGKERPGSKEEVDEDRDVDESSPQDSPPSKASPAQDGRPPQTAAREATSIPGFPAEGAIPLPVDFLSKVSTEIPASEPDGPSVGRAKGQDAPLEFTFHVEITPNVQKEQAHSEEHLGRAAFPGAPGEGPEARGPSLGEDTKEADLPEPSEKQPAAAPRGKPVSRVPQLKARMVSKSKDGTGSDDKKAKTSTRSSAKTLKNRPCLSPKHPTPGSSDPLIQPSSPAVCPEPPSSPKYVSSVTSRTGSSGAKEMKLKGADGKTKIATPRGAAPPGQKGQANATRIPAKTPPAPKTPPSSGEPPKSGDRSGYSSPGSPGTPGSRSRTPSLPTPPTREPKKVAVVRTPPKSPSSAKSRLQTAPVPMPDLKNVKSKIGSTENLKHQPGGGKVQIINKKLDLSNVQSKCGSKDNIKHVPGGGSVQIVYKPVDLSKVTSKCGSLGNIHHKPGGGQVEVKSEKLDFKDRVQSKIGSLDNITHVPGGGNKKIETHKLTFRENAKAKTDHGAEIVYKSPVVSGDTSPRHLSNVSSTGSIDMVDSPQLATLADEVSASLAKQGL

[7] = molecular target: T1, Microtubule-associated protein tau; experiment: Inhibition of tau (unknown origin)
[8] = molecular target: T1, Microtubule-associated protein tau; experiment: Binding affinity to tau (unknown origin)
[9] = molecular target: Microtubule-associated protein tau (Rattus norvegicus) (UniProt P19332); experiment: Inhibition of tau in rat Primary cortical neuron cell assessed as reduction in 4R/3R ratio; type: cell-based; settings: concentration not given here
Sequence of Microtubule-associated protein tau (Rattus norvegicus) (P19332 whole entry): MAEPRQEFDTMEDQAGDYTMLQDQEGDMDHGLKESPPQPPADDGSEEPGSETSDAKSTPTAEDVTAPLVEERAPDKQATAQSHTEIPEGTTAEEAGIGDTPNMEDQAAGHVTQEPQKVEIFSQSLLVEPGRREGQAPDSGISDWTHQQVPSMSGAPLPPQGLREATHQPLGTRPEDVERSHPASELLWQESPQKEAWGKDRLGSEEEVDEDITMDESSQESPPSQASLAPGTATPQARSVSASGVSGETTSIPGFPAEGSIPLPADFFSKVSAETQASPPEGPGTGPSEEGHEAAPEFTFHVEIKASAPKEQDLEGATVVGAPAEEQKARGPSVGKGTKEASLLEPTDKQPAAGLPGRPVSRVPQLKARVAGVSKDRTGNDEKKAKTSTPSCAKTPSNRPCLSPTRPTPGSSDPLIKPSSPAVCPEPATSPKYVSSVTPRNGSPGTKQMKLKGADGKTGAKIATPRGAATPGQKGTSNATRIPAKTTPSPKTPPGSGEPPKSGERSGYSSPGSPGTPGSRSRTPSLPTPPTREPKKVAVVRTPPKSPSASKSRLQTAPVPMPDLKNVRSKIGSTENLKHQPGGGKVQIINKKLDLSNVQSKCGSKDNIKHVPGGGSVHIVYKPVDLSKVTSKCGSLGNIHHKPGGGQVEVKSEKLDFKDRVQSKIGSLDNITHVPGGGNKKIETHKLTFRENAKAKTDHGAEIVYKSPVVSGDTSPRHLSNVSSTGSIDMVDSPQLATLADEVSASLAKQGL

HeLa = experiment: Cytotoxicity against human HeLa cells; type: functional
[10] = tested on: Human immunodeficiency virus 1; experiment: Antiviral activity against HIV-1 infected in human T cell line assessed as inhibition of DNA replication; type: functional, organism-based; settings: Human immunodeficiency virus 1, T-cell
[11] = Binding affinity to HIV-1 mRNA assessed as dissociation constant; parameters: species or system Human immunodeficiency virus 1
[12] = tested on: Human immunodeficiency virus 1; experiment: Antiviral activity against HIV-1; type: functional, organism-based
[13] = Inhibition of r(CCUG)12-MBNL1 (unknown origin) by gel electrophoretic mobility shift assay; parameters: species or system Homo sapiens
[14] = molecular target: T2, Muscleblind-like protein 1 (Homo sapiens, UniProt Q9NR56); experiment: Binding affinity to MBNL1 (unknown origin) assessed as dissociation constant
T2 sequence (Q9NR56 whole entry): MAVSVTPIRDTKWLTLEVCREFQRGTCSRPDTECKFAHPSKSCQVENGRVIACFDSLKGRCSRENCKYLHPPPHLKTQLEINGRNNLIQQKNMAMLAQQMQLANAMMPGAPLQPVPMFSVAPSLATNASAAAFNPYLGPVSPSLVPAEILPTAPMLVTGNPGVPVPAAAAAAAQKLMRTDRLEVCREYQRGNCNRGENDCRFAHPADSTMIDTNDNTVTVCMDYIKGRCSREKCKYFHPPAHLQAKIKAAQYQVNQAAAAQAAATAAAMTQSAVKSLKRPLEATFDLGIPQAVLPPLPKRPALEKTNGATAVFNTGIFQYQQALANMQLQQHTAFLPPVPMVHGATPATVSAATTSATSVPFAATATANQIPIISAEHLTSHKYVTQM

[15] = Binding affinity to r(CCUG)12 (unknown origin) assessed as dissociation constant
U-251 = experiment: Induction of apoptosis in human U-251 cells at 100 uM; type: functional
MCF7 = experiment: Induction of apoptosis in human MCF7 cells at 100 uM; type: functional
[16] = Binding affinity to Precursor microRNA-515 (unknown origin) assessed as dissociation constant
[17] = Binding affinity to Precursor microRNA-210 (unknown origin) assessed as dissociation constant
MDA-MB-231 = experiment: Inhibition of Precursor microRNA-210 in human MDA-MB-231 cells at 200 nM relative to control; type: cell-based
[18] = Downregulation of alpha-Synuclein level in human SH-SY5Y cells at 1 uM relative to control; type: functional

SMILES: N=C(N)NC[C@H]1O[C@H](O[C@@H]2[C@@H](OCCSSCCNCCNc3ccc(NCCNCCO)c4c3C(=O)c3ccccc3C4=O)[C@H](O)[C@@H](NC(=N)N)C[C@H]2NC(=N)N)[C@H](NC(=N)N)[C@@H](O)[C@@H]1O
EC50 [1]: 57.2 nM

SMILES: O=C1c2c(O)ccc(O)c2C(=O)c2c(NCCNCCO)ccc(NCCNCCO)c21 [MITOXANTRONE]
Activity (HeLa): 1 µM
IC50 [10]: 23100 nM

SMILES: NC(=O)c1ncn2c(=O)n(NC(=O)c3nc4c(N)cccc4[nH]3)nnc12
Activity (U-251): 30%
Activity (MCF7): 30%

SMILES: CCCN(CC(=O)N(CCC)CC(=O)N(CCC)CC(=O)N(CCC)CC(=O)N(CC(N)=O)Cc1cn(CCCNC(=O)CCCOc2c(C(C)(C)C)cc(-c3nc4ccc(-c5ccc(N6CCN(C)CC6)cc5)cc4[nH]3)cc2C(C)(C)C)nn1)C(=O)CNCc1cn(CCCNC(=O)CCCOc2c(C(C)(C)C)cc(-c3nc4ccc(-c5ccc(N6CCN(C)CC6)cc5)cc4[nH]3)cc2C(C)(C)C)nn1
Kd [16]: 60 nM

SMILES: CN1CCN(c2ccc3nc(-c4ccc(OCCCC(=O)NCCCOCC(O)COP(=O)(O)O[C@@H]5[C@H](O)[C@@H](COP(=O)(O)O[C@@H]6[C@H](O)[C@@H](COP(=O)(O)O[C@@H]7[C@H](O)[C@@H](COP(=O)(O)O[C@@H]8[C@H](O)[C@@H](COP(=O)(O)O)O[C@H]8n8cnc9c(N)ncnc98)O[C@H]7n7cnc8c(N)ncnc87)O[C@H]6n6cnc7c(N)ncnc76)O[C@H]5n5cnc6c(N)ncnc65)cc4)[nH]c3c2)CC1 (some centres not stated)
Kd [17]: 340 nM
inhibition (MDA-MB-231): 50%

SMILES: N=C(N)c1ccc(Nc2ccc(-c3cc4ccc(C(=N)N)cc4[nH]3)cc2)cc1
Activity [18]: 67%

More lines, main results first:

IC50 (Escherichia coli [4]): 300 nM
SMILES: CNc1ncc(CN2CCCC(c3nc(O)cc(-c4cccs4)n3)C2)cn1 (configuration not stated)
Activity (Escherichia coli [2]): 7.76 log10CFU/g
Activity (Escherichia coli [3]): 6.24 log10CFU/g

Kd [5]: 5900 nM
SMILES: O=c1c2cc(-c3ccco3)sc2nc2n1Cc1nc3sc(-c4ccco4)cc3c(=O)n1C2

inhibition [6]: 40%
IC50 [7]: 2100 nM
Kd [8]: 4900 nM
inhibition [9]: 50%
SMILES: COc1ccc2[nH]c3c(c2c1)N=CN(CCCN(C)C1CCCCC1)C3

Kd [11]: 110 nM
IC50 [12]: 410 nM
SMILES: CC(=O)Nc1nc(CC(=O)c2cccc(NC(=O)[C@@H](N)CCCCNC(=N)N)c2)cs1

IC50 [13]: 115000 nM
Kd [14]: > 200000 nM
Kd [15]: 8000 nM
SMILES: N=C(NCCCCNc1nc(N)nc(N)n1)c1ccc(C(=N)NCCCCNc2nc(N)nc(N)n2)cc1
